In patent publication US9040529B2 (Vichem Chemie Kutató Kft., priority 2009, dated 2015) one finds IC50 and CDK9 inhibitory effect data, which are given here for 34 compounds.

pIC50: −log10 of the molar value. Counter-ions that a name gives are not always drawn.

This assay addresses T1, human CDK9/CyclinT kinase complex (Homo sapiens, UniProt P50750).
T1 construct: purchased Proqinase 0371-0345-1
The assay is described as follows: In vitro CDK9/CyclinT assay (IMAP fluorescence polarization kinase assay). Format: biochemical. The settings on record: for pIC50: 5 nM CDK9/CyclinT, 400 nM TAMRA-Rbtide, 12 μM ATP, 1 hour at room temperature, read-out: CDK9 inhibitory range. On the procedure: In Vitro CDK9/CyclinT Assay
The activity of the compounds described in the present invention can be determined by the following kinase assay, which measures the phosphorylation of a fluorescently-labeled peptide by human CDK9/CyclinT kinase complex by fluorescent polarization using a commercially available IMAP Screening Express Assay Kit (Molecular devices).
CDK9 kinase assays were performed in low protein binding 384-well plates (Corning 3676). Test compounds were diluted in 100% DMSO to 5 mM stock concentration, then further dilutions were made in H2O or 100% DMSO to desirable concentrations.
Each reaction consisted of 5 nM enzyme: CDK9/CyclinT (Proqinase cat#0371-0345-1), 400 nM TAMRA-Rbtide (synthetic 15-mer peptide derived from human retinoblastoma tumor suppressor protein labelled with TAMRA dye, Genecust Europe), 12 μM ATP (=Kmapp, Sigma-Aldrich) and kinase buffer: 20 mM MOPS pH 7 (Sigma-Aldrich), 1 mM DTT (Sigma-Aldrich), 10 mM MgCl2 (Sigma-Aldrich), 0.01% Tween 20 (Sigma-Aldrich).
For each reaction, 4 or 6 μl containing TAMRA-Rbtide, ATP and kianse buffer were combined with 2 μl diluted compound in H2O or 0.028 μl compound in 100% DMSO. The kinase reaction was started by the addition of 2 μl diluted enzyme. The reaction was allowed to run for 1 hours at room temperature. The reaction was stopped by adding 15 μl IMAP beads (1:400 beads in progressive (100% buffer A) 1× buffer). After an additional 1 hours, fluorescent polarization (Ex: 550-10 nm, Em: 590-10 nm, Dich: 561 nm) was measured using an Analyst GT (Molecular devices).
Background: Polarisation of emitted light reports the rotation of a fluorescent probe.

T1 sequence (P50750 whole entry): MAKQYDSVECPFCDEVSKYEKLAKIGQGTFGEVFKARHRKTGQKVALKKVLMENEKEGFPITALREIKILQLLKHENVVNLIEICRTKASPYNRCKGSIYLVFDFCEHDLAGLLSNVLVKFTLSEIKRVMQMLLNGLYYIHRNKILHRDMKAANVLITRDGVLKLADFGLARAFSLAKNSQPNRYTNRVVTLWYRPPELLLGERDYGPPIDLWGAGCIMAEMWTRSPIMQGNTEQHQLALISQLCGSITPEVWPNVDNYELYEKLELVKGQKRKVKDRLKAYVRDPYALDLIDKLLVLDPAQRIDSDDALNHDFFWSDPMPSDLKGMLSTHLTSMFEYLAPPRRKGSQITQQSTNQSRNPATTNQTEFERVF
T1 sequence (O60563 whole entry partner): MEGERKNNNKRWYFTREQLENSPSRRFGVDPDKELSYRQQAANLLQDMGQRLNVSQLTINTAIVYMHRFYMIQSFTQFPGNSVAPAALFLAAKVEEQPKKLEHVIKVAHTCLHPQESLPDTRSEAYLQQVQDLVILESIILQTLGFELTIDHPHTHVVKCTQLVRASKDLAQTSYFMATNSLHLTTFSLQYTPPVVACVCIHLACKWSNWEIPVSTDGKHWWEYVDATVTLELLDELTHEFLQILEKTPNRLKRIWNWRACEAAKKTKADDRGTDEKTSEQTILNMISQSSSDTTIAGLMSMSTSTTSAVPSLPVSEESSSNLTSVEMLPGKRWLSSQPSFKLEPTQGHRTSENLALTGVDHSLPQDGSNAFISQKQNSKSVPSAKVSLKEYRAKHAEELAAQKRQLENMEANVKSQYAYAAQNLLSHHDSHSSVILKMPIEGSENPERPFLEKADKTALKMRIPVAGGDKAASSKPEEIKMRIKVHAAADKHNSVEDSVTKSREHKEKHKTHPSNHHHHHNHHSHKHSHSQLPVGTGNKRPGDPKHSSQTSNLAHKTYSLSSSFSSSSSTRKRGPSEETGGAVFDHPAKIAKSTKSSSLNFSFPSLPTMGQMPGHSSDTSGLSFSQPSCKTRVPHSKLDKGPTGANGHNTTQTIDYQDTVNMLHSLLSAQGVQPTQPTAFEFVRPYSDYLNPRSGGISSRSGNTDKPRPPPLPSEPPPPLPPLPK

`COc1ccc(-c2cc(Nc3ccc(CNS(C)(=O)=O)cc3)ncn2)cc1` [Example 57, N-{4-[6-(4-Methoxy-phenyl)-pyrimidin-4-ylamino]-benzyl}-methanesulfonamide]: the pIC50 is greater than 6.00.

`CS(=O)(=O)NCc1ccc(Nc2cc(-c3cn[nH]c3)ncn2)cc1` [Example 58, N-{4-[6-(1H-Pyrazol-4-yl)-pyrimidin-4-ylamino]-benzyl}-methanesulfonamide]: the pIC50 was less than 5.00. On the same count and under the same terms, in the case of `Clc1cc(Nc2cccc(CNc3nc4ccccc4[nH]3)c2)ncn1` [Example 59, (1H-Benzoimidazol-2-yl)-[3-(6-chloro-pyrimidin-4-ylamino)-benzyl]-amine] it was less than 5.00; in that of `COc1ccccc1-c1cc(Nc2cccc(CNc3nc4ccccc4[nH]3)c2)ncn1` [Example 60, (1H-Benzoimidazol-2-yl)-{3-[6-(2-methoxy-phenyl)-pyrimidin-4-ylamino]-benzyl}-amine], greater than 6.00; in that of `COc1cc(F)ccc1-c1cc(Nc2cccc(CNc3nc4ccccc4[nH]3)c2)ncn1` [Example 61, (1H-Benzoimidazol-2-yl)-{3-[6-(4-fluoro-2-methoxy-phenyl)-pyrimidin-4-ylamino]-benzyl}-amine], greater than 6.00. As for `COc1ccc(F)cc1-c1cc(Nc2cccc(CNc3nc4ccccc4[nH]3)c2)ncn1` [Example 62, (1H-Benzoimidazol-2-yl)-{3-[6-(5-fluoro-2-methoxy-phenyl)-pyrimidin-4-ylamino]-benzyl}-amine], the pIC50 was greater than 6.00. Same read-out and setting: in the case of `Clc1cc(Nc2cccc(Cn3cnc4ccccc43)c2)ncn1` [Example 63, (3-Benzoimidazol-1-ylmethyl-phenyl)-(6-chloro-pyrimidin-4-yl)-amine] it was greater than 5.00. Consider `COc1ccccc1-c1cc(Nc2cccc(Cn3cnc4ccccc43)c2)ncn1` [Example 64, (3-Benzoimidazol-1-ylmethyl-phenyl)-[6-(2-methoxy-phenyl)-pyrimidin-4-yl]-amine], for which the CDK9 inhibitory effect result was “nanomolar or low nanomolar range” and the pIC50 was greater than 7.00. The like results for `COc1cc(F)ccc1-c1cc(Nc2cccc(Cn3cnc4ccccc43)c2)ncn1` [Example 65, (3-Benzoimidazol-1-ylmethyl-phenyl)-[6-(4-fluoro-2-methoxy-phenyl)-pyrimidin-4-yl]-amine] were, in that order, “nanomolar or low nanomolar range” and greater than 7.00.

On to `COc1ccc(F)cc1-c1cc(Nc2cccc(Cn3cnc4ccccc43)c2)ncn1` [Example 66, (3-Benzoimidazol-1-ylmethyl-phenyl)-[6-(5-fluoro-2-methoxy-phenyl)-pyrimidin-4-yl]-amine], for which the CDK9 inhibitory effect result is reported as “nanomolar or low nanomolar range” and the pIC50 is greater than 7.00. Consider `O=C1c2ccccc2C(=O)N1Cc1cccc(Nc2cc(Cl)ncn2)c1` [Example 67, 2-[3-(6-Chloro-pyrimidin-4-ylamino)-benzyl]-isoindole-1,3-dione], for which the pIC50 was less than 5.00.

Turning to `COc1ccccc1-c1cc(Nc2cccc(CN3C(=O)c4ccccc4C3=O)c2)ncn1` [Example 68, 2-{3-[6-(2-Methoxy-phenyl)-pyrimidin-4-ylamino]-benzyl}-isoindole-1,3-dione], the CDK9 inhibitory effect entry is recorded as “nanomolar or low nanomolar range” and the pIC50 is greater than 7.00. The corresponding values for `COc1ccccc1-c1cc(Nc2cccc(CN)c2)ncn1` [Example 69, (3-Aminomethyl-phenyl)-[6-(2-methoxy-phenyl)-pyrimidin-4-yl]-amine hydrochloride] are “nanomolar or low nanomolar range” and greater than 7.00.

For the compound `COc1ccccc1-c1cc(Nc2cccc(CNS(=O)(=O)c3c(Cl)cccc3Cl)c2)ncn1` [Example 70, 2,6-Dichloro-N-{3-[6-(2-methoxy-phenyl)-pyrimidin-4-ylamino]-benzyl}-benzenesulfonamide], the pIC50 was greater than 6.00.

On to `CCCS(=O)(=O)NCc1cccc(Nc2cc(-c3ccccc3OC)ncn2)c1` [Example 71, Propane-1-sulfonic acid 3-[6-(2-methoxy-phenyl)-pyrimidin-4-ylamino]-benzylamide], for which the CDK9 inhibitory effect entry was “nanomolar or low nanomolar range” and the pIC50 was greater than 7.00. For `COc1ccccc1-c1cc(Nc2cccc(CNS(=O)(=O)c3ccc(F)cc3)c2)ncn1` [Example 72, 4-Fluoro-N-{3-[6-(2-methoxy-phenyl)-pyrimidin-4-ylamino]-benzyl}-benzenesulfonamide], the pIC50 is greater than 6.00. Still for that read-out and setting: next, `COc1ccccc1-c1cc(Nc2cccc(CNS(=O)(=O)c3cccs3)c2)ncn1` [Example 73, Thiophene-2-sulfonic acid 3-[6-(2-methoxy-phenyl)-pyrimidin-4-ylamino]-benzylamide]: greater than 6.00; `COc1ccccc1-c1cc(Nc2cccc(CNS(=O)(=O)Cc3ccccc3)c2)ncn1` [Example 74, N-{3-[6-(2-Methoxy-phenyl)-pyrimidin-4-ylamino]-benzyl}-C-phenyl-methanesulfonamide]: greater than 6.00.

`CS(=O)(=O)NCc1cccc(Nc2cc(-c3ccc(O)cc3)ncn2)c1` [Example 75, N-{3-[6-(4-Hydroxy-phenyl)-pyrimidin-4-ylamino]-benzyl}-methanesulfonamide]: the pIC50 is greater than 7.00. On the same count and under the same terms, in the case of `CS(=O)(=O)NCc1ccc(Nc2cc(-c3ccc(O)cc3)ncn2)cc1` [Example 76, N-{4-[6-(4-Hydroxy-phenyl)-pyrimidin-4-ylamino]-benzyl}-methanesulfonamide] it was greater than 6.00; in that of `CC(C)Oc1cc(F)ccc1-c1cc(Nc2cccc(CNc3nc4ccccc4[nH]3)c2)ncn1` [Example 77, (1H-Benzoimidazol-2-yl)-{3-[6-(4-fluoro-2-isopropoxy-phenyl)-pyrimidin-4-ylamino]-benzyl}-amine], greater than 7.00.

As to `Oc1ccc(-c2cc(Nc3cccc(CNc4nc5ccccc5[nH]4)c3)ncn2)cc1` [Example 78, 4-(6-{3-[(1H-Benzoimidazol-2-ylamino)-methyl]-phenylamino}-pyrimidin-4-yl)-phenol], the pIC50 was greater than 6.00. On the same count and under the same terms, next, `COc1cccc(F)c1-c1cc(Nc2cccc(Cn3cnc4ccccc43)c2)ncn1` [Example 79, (3-Benzoimidazol-1-ylmethyl-phenyl)-[6-(2-fluoro-6-methoxy-phenyl)-pyrimidin-4-yl]-amine]: greater than 7.00; `CC(C)Oc1ccccc1-c1cc(Nc2cccc(Cn3cnc4ccccc43)c2)ncn1` [Example 80, (3-Benzoimidazol-1-ylmethyl-phenyl)-[6-(2-isopropoxy-phenyl)-pyrimidin-4-yl]-amine]: greater than 7.00; `CC(C)Oc1cc(F)ccc1-c1cc(Nc2cccc(Cn3cnc4ccccc43)c2)ncn1` [Example 81, (3-Benzoimidazol-1-ylmethyl-phenyl)-[6-(4-fluoro-2-isopropoxy-phenyl)-pyrimidin-4-yl]-amine]: greater than 7.00.

In the case of `Oc1ccc(-c2cc(Nc3cccc(Cn4cnc5ccccc54)c3)ncn2)cc1` [Example 82, 4-[6-(3-Benzoimidazol-1-ylmethyl-phenylamino)-pyrimidin-4-yl]-phenol], the pIC50 was greater than 6.00.

As to `Oc1cccc(-c2cc(Nc3cccc(Cn4cnc5ccccc54)c3)ncn2)c1` [Example 83, 3-[6-(3-Benzoimidazol-1-ylmethyl-phenylamino)-pyrimidin-4-yl]-phenol], the pIC50 was greater than 5.00.

In the case of `COc1ccccc1-c1cc(Nc2cccc(CNC(=O)c3ccc(F)cc3)c2)ncn1` [Example 84, 4-Fluoro-N-{3-[6-(2-methoxy-phenyl)-pyrimidin-4-ylamino]-benzyl}-benzamide], the pIC50 is greater than 6.00. On the same count and under the same terms, next, `COc1ccccc1-c1cc(Nc2cccc(CNC(=O)Nc3ccc(F)cc3)c2)ncn1` [Example 85, 1-(4-Fluoro-phenyl)-3-{3-[6-(2-methoxy-phenyl)-pyrimidin-4-ylamino]-benzyl}-urea]: greater than 5.00; `Clc1cc(Nc2ccc(Cn3cnc4ccccc43)cc2)ncn1` [Example 86, (4-Benzoimidazol-1-ylmethyl-phenyl)-(6-chloro-pyrimidin-4-yl)-amine]: less than 5.00; `COc1ccccc1-c1cc(Nc2ccc(Cn3cnc4ccccc43)cc2)ncn1` [Example 87, (4-Benzoimidazol-1-ylmethyl-phenyl)-[6-(2-methoxy-phenyl)-pyrimidin-4-yl]-amine]: greater than 6.00. Same read-out and setting: in the case of `CC(C)Oc1cc(F)ccc1-c1cc(Nc2ccc(Cn3cnc4ccccc43)cc2)ncn1` [Example 88, (4-Benzoimidazol-1-ylmethyl-phenyl)-[6-(4-fluoro-2-isopropoxy-phenyl)-pyrimidin-4-yl]-amine] it was greater than 6.00; in that of `Oc1ccc(-c2cc(Nc3ccc(Cn4cnc5ccccc54)cc3)ncn2)cc1` [Example 89, 4-[6-(4-Benzoimidazol-1-ylmethyl-phenylamino)-pyrimidin-4-yl]-phenol], greater than 6.00; in that of `Clc1cc(Nc2cccc(Cn3ccc4ccccc43)c2)ncn1` [Example 90, (6-Chloro-pyrimidin-4-yl)-(3-indol-1-ylmethyl-phenyl)-amine], less than 5.00.
